Measured values from the supplement of paper PMC10307832.

How the values were obtained:
Assay in all cases: relative viability (nuclei count vs DMSO), 5 days (fraction); higher = more cells survive
ABC-1 = tested on: ABC-1
In short: (§1)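 Cells from lung cancer lines were seeded into 1536-well plates and, one day later, dosed by pin tool. Treatments were either a single drug or a fixed dose of an anchor drug with five library-drug doses (not always all listed) in √10 steps. After 5 days, nuclei were stained in a one-step fixation (final 0.05% Triton X-100, 1% formaldehyde, 1 ug/ml Hoechst) and counted on 4× images, and relative viability is the treated-to-vehicle nuclei ratio, as the median of duplicate plates.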

CAL-12T = tested on: CAL-12T
In short: as §1

COR-L 105 = tested on: COR-L 105
In short: as §1

ChaGo-K-1 = tested on: ChaGo-K-1
In short: as §1

EMC-BAC-2 = tested on: EMC-BAC-2
In short: as §1

EPLC-272H = tested on: EPLC-272H
In short: as §1

HCC-15 = tested on: HCC-15
In short: as §1

HCC-78 = tested on: HCC-78
In short: as §1

HOP-62 = tested on: HOP-62
In short: as §1

LXF-289 = tested on: LXF-289
In short: as §1

NCI-H1666 = tested on: NCI-H1666
In short: as §1

NCI-H1755 = tested on: NCI-H1755
In short: as §1

NCI-H1915 = tested on: NCI-H1915
In short: as §1

NCI-H1975 = tested on: NCI-H1975
In short: as §1

NCI-H2023 = tested on: NCI-H2023
In short: as §1

NCI-H2085 = tested on: NCI-H2085
In short: as §1

NCI-H2126 = tested on: NCI-H2126
In short: as §1

NCI-H3122 = tested on: NCI-H3122
In short: as §1

NCI-H322M = tested on: NCI-H322M
In short: as §1

NCI-H358 = tested on: NCI-H358
In short: as §1

NCI-H441 = tested on: NCI-H441
In short: as §1

UMC-11 = tested on: UMC-11
In short: as §1

In the case of `CCN(CC)CCCCNc1ncc2cc(-c3cc(OC)cc(OC)c3)c(NC(=O)NC(C)(C)C)nc2n1` + Cc1nc(Nc2ncc(C(=O)Nc3c(C)cccc3Cl)s2)cc(N2CCN(CCO)CC2)n1 [Dasatinib] (partner 0.075 µM), the relative viability (ABC-1; first compound 0.01 µM) is reported as 0.617, the relative viability (ABC-1; first compound 0.03162 µM) is reported as 0.541 and the relative viability (ABC-1; first compound 0.1 µM) is reported as 0.618. For the same molecule, the relative viability (ABC-1; first compound 0.3162 µM) was 0.548, the relative viability (ABC-1; first compound 1 µM) was 0.535 and the relative viability (CAL-12T; first compound 0.01 µM) was 0.389. The relative viability (CAL-12T; first compound 0.03162 µM) was 0.525, the relative viability (CAL-12T; first compound 0.1 µM) was 0.435 and the relative viability (CAL-12T; first compound 0.3162 µM) was 0.371. It also gave a relative viability (CAL-12T; first compound 1 µM) of 0.417, a relative viability (COR-L 105; first compound 0.01 µM) of 0.297 and a relative viability (COR-L 105; first compound 0.03162 µM) of 0.282. The relative viability (COR-L 105; first compound 0.1 µM) was 0.354, the relative viability (COR-L 105; first compound 0.3162 µM) was 0.381 and the relative viability (COR-L 105; first compound 1 µM) was 0.279. The relative viability (ChaGo-K-1; first compound 0.01 µM) was 0.584, the relative viability (ChaGo-K-1; first compound 0.03162 µM) was 0.602 and the relative viability (ChaGo-K-1; first compound 0.1 µM) was 0.655. The relative viability (ChaGo-K-1; first compound 0.3162 µM) was 0.643, the relative viability (ChaGo-K-1; first compound 1 µM) was 0.514 and the relative viability (EMC-BAC-2; first compound 0.01 µM) was 0.189. The relative viability (EMC-BAC-2; first compound 0.03162 µM) was 0.359, the relative viability (EMC-BAC-2; first compound 0.1 µM) was 0.304 and the relative viability (EMC-BAC-2; first compound 0.3162 µM) was 0.348. For the same molecule, the relative viability (EMC-BAC-2; first compound 1 µM) was 0.3, the relative viability (EPLC-272H; first compound 0.01 µM) was 0.379 and the relative viability (EPLC-272H; first compound 0.03162 µM) was 1.08. It also gave a relative viability (EPLC-272H; first compound 0.1 µM) of 0.322, a relative viability (EPLC-272H; first compound 0.3162 µM) of 0.294 and a relative viability (EPLC-272H; first compound 1 µM) of 0.241. It also gave a relative viability (HCC-15; first compound 0.01 µM) of 0.613, a relative viability (HCC-15; first compound 0.03162 µM) of 0.7 and a relative viability (HCC-15; first compound 0.1 µM) of 0.681. For the same molecule, the relative viability (HCC-15; first compound 0.3162 µM) was 0.748, the relative viability (HCC-15; first compound 1 µM) was 0.554 and the relative viability (HCC-78; first compound 0.01 µM) was 0.46. For the same molecule, the relative viability (HCC-78; first compound 0.03162 µM) was 0.361, the relative viability (HCC-78; first compound 0.1 µM) was 0.493 and the relative viability (HCC-78; first compound 0.3162 µM) was 0.421. The relative viability (HCC-78; first compound 1 µM) was 0.364, the relative viability (HOP-62; first compound 0.01 µM) was 0.67 and the relative viability (HOP-62; first compound 0.03162 µM) was 0.726. For the same molecule, the relative viability (HOP-62; first compound 0.1 µM) was 0.828, the relative viability (HOP-62; first compound 0.3162 µM) was 0.707 and the relative viability (HOP-62; first compound 1 µM) was 0.417. For the same molecule, the relative viability (LXF-289; first compound 0.01 µM) was 0.209, the relative viability (LXF-289; first compound 0.03162 µM) was 0.249 and the relative viability (LXF-289; first compound 0.1 µM) was 0.266. The relative viability (LXF-289; first compound 0.3162 µM) was 0.167, the relative viability (LXF-289; first compound 1 µM) was 0.0987 and the relative viability (NCI-H1666; first compound 0.01 µM) was 0.824. The relative viability (NCI-H1666; first compound 0.03162 µM) was 0.757, the relative viability (NCI-H1666; first compound 0.1 µM) was 0.942 and the relative viability (NCI-H1666; first compound 0.3162 µM) was 0.884. For the same molecule, the relative viability (NCI-H1666; first compound 1 µM) was 0.639, the relative viability (NCI-H1755; first compound 0.01 µM) was 0.394 and the relative viability (NCI-H1755; first compound 0.03162 µM) was 0.464. The relative viability (NCI-H1755; first compound 0.1 µM) was 0.518, the relative viability (NCI-H1755; first compound 0.3162 µM) was 0.621 and the relative viability (NCI-H1755; first compound 1 µM) was 0.207. The relative viability (NCI-H1915; first compound 0.01 µM) was 0.303, the relative viability (NCI-H1915; first compound 0.03162 µM) was 0.306 and the relative viability (NCI-H1915; first compound 0.1 µM) was 0.361. The relative viability (NCI-H1915; first compound 0.3162 µM) was 0.286, the relative viability (NCI-H1915; first compound 1 µM) was 0.297 and the relative viability (NCI-H1975; first compound 0.01 µM) was 0.369. It also gave a relative viability (NCI-H1975; first compound 0.03162 µM) of 0.403, a relative viability (NCI-H1975; first compound 0.1 µM) of 0.458 and a relative viability (NCI-H1975; first compound 0.3162 µM) of 0.452. For the same molecule, the relative viability (NCI-H1975; first compound 1 µM) was 0.313, the relative viability (NCI-H2023; first compound 0.01 µM) was 0.548 and the relative viability (NCI-H2023; first compound 0.03162 µM) was 0.675. The relative viability (NCI-H2023; first compound 0.1 µM) was 0.657, the relative viability (NCI-H2023; first compound 0.3162 µM) was 0.571 and the relative viability (NCI-H2023; first compound 1 µM) was 0.493. The relative viability (NCI-H2085; first compound 0.01 µM) was 0.251, the relative viability (NCI-H2085; first compound 0.03162 µM) was 0.181 and the relative viability (NCI-H2085; first compound 0.1 µM) was 0.278. For the same molecule, the relative viability (NCI-H2085; first compound 0.3162 µM) was 0.231, the relative viability (NCI-H2085; first compound 1 µM) was 0.216 and the relative viability (NCI-H2126; first compound 0.01 µM) was 0.586. For the same molecule, the relative viability (NCI-H2126; first compound 0.03162 µM) was 0.603, the relative viability (NCI-H2126; first compound 0.1 µM) was 0.648 and the relative viability (NCI-H2126; first compound 0.3162 µM) was 0.77. The relative viability (NCI-H2126; first compound 1 µM) was 0.53, the relative viability (NCI-H3122; first compound 0.01 µM) was 0.876 and the relative viability (NCI-H3122; first compound 0.03162 µM) was 0.914. It also gave a relative viability (NCI-H3122; first compound 0.1 µM) of 0.939, a relative viability (NCI-H3122; first compound 0.3162 µM) of 0.954 and a relative viability (NCI-H3122; first compound 1 µM) of 0.842. For the same molecule, the relative viability (NCI-H322M; first compound 0.01 µM) was 0.242, the relative viability (NCI-H322M; first compound 0.03162 µM) was 0.246 and the relative viability (NCI-H322M; first compound 0.1 µM) was 0.244. The relative viability (NCI-H322M; first compound 0.3162 µM) was 0.257, the relative viability (NCI-H322M; first compound 1 µM) was 0.237 and the relative viability (NCI-H358; first compound 0.01 µM) was 0.169. The relative viability (NCI-H358; first compound 0.03162 µM) was 0.127, the relative viability (NCI-H358; first compound 0.1 µM) was 0.157 and the relative viability (NCI-H358; first compound 0.3162 µM) was 0.147. For the same molecule, the relative viability (NCI-H358; first compound 1 µM) was 0.198, the relative viability (NCI-H441; first compound 0.01 µM) was 0.68 and the relative viability (NCI-H441; first compound 0.03162 µM) was 0.572. It also gave a relative viability (NCI-H441; first compound 0.1 µM) of 0.604, a relative viability (NCI-H441; first compound 0.3162 µM) of 0.775 and a relative viability (NCI-H441; first compound 1 µM) of 0.554. It also gave a relative viability (UMC-11; first compound 0.01 µM) of 0.541, a relative viability (UMC-11; first compound 0.03162 µM) of 0.485 and a relative viability (UMC-11; first compound 0.1 µM) of 0.722. It also gave a relative viability (UMC-11; first compound 0.3162 µM) of 0.581 and a relative viability (UMC-11; first compound 1 µM) of 0.405.
